Columns and labels:
MOLT-4 cells = test: MOLT-4 cell viability using MTT assay; assay type: cell-based; conditions: Homo sapiens, MOLT-4, 48 h, 48 h exposure
Experimental: MTT colorimetric assay is based on the mitochondrial reduction of tetrazolium salt by living cells.
Cells were cultured at 37° C. in a humidified atmosphere containing 5% CO2. […] At the end of incubation time, 15 μL of MTT solution (5 mg/ml) were added per well and the cells were incubated for another 4 h. […] IC50s were calculated using standard four-parametric curve fitting.

[1] = biological target: His-His-(EK)-hsBCLXL(2-197)[N197C] (Homo sapiens (Human), UniProt Q07817, N197C); test: Fluorescence quenching assay; assay type: binding; conditions: 1 nM Cy5-labelled protein, 400 nM PUMA peptide, 2 hours at 23° C.; KI determined from IC50
His-His-(EK)-hsBCLXL(2-197)[N197C], sequence (Q07817 2-197 N197C): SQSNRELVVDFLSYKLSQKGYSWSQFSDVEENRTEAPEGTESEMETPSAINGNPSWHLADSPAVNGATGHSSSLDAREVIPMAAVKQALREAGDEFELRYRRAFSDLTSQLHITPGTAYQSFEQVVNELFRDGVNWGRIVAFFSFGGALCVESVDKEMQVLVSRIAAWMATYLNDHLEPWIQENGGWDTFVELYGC
Summary of the method: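 Ki values converted from IC50s, measured as fluorescence increase (Ex 620/Em 680 nm) after 2 h at 23° C. Compounds were titrated over 11 points against 1 nM Cy5-BCL-xL and 400 nM quencher-tagged PUMA peptide in pH 7.4 HEPES (10 mM), 150 mM NaCl, 0.05% Tween 20, 5% DMSO.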

H146 cells = test: H146 cell viability using MTT assay; assay type: cell-based; conditions: Homo sapiens, NCI-H146, 48 h exposure
Experimental: MTT colorimetric assay is based on the mitochondrial reduction of tetrazolium salt by living cells. The viable cell number is proportional to the production of formazan salts, which can be read spectrophotometrically at 540 nm.
MOLT-4 and H146 cells were purchased from ATCC and cultivated in RPMI 1640 supplemented with 10% heat inactivated fetal bovine serum, penicillin (100 IU/ml), streptomycin (100 μg/ml) and L-glutamine (2 mM). Cells were cultured at 37° C. in a humidified atmosphere containing 5% CO2. Cells were seeded in 96 microwell plates (150p per well) and exposed to the compounds for 48 h (3.16 fold serially diluted; 9 concentrations each, triplicates). At the end of incubation time, 15 μL of MTT solution (5 mg/ml) were added per well and the cells were incubated for another 4 h. Then, 100 μL of 10% Sodium Dodecyl Sulfate (SDS)/HCl 10 mM were added per well and the plate was incubated overnight, before measurement of optical density at 540 nm. IC50s were calculated using standard four-parametric curve fitting.

Row | IC50 (MOLT-4 cells) | Ki [1] | IC50 (H146 cells) | SMILES
1 | 26.6 nM | 0.005 nM | 3.98 nM | CNCCOC1Cc2c(nnc(Nc3nc4ccccc4s3)c2C)N(c2nc(C(=O)O)c(CCCOc3ccc(C#CCN(C)C)cc3F)s2)C1 (stereo not drawn) [Example 65, 2-{3-[(1,3-Benzothiazol-2-yl)amino]-4-methyl-6-[2-(methylamino)ethoxy]-5H,6H,7H,8H-pyrido[2,3-c]pyridazin-8-yl}-5-(3-{4-[3-(dimethylamino)prop-1-yn-1-yl]-2-fluorophenoxy}propyl)-1,3-thiazole-4-carboxylic acid]
2 | 0.957 nM | 0.0089 nM | 7.31 nM | Cc1c(Nc2nc3ccccc3s2)nnc2c1CCCN2c1nc(C(=O)O)c(CCCOc2ccc(C#CCN3CCOCC3)cc2F)s1 [Example 47, 2-[3-(1,3-Benzothiazol-2-ylamino)-4-methyl-6,7-dihydro-5H-pyrido[2,3-c]pyridazin-8-yl]-5-[3-[2-fluoro-4-(3-morpholinoprop-1-ynyl)phenoxy]propyl]thiazole-4-carboxylic acid]
3 | 0.551 nM | 0.0049 nM | 10.6 nM | Cc1c(Nc2nc3ccccc3s2)nnc2c1CCCN2c1nc(C(=O)O)c(CCCOc2ccc(C#CCN3CCC3)cc2F)s1 [Example 45, 5-(3-{4-[3-(Azetidin-1-yl)prop-1-yn-1-yl]-2-fluorophenoxy}propyl)-2-{3-[(1,3-benzothiazol-2-yl)amino]-4-methyl-5H,6H,7H,8H-pyrido[2,3-c]pyridazin-8-yl}-1,3-thiazole-4-carboxylic acid]
4 | 1.46 nM | 0.049 nM | 12.9 nM | Cc1c(Nc2nc3ccccc3s2)nnc2c1CCCN2c1nc(C(=O)O)c(CCCOc2ccc(C#CCN3C[C@H]4C[C@H]4C3)cc2F)s1 [Example 56, 5-[3-[4-[3-[(1S,5R)-3-Azabicyclo[3.1.0]hexan-3-yl]prop-1-ynyl]-2-fluoro-phenoxy]propyl]-2-[3-(1,3-benzothiazol-2-ylamino)-4-methyl-6,7-dihydro-5H-pyrido[2,3-c]pyridazin-8-yl]thiazole-4-carboxylic acid]
5 | 122 nM | 0.033 nM | 120 nM | Cc1c(Nc2nc3ccccc3s2)nnc2c1CCCN2c1nc(C(=O)O)c(CCCOc2cc3c(cc2F)c(CN(C)C)cn3C)s1 [Example 61, 2-{3-[(1,3-Benzothiazol-2-yl)amino]-4-methyl-5H,6H,7H,8H-pyrido[2,3-c]pyridazin-8-yl}-5-[3-({3-[(dimethylamino)methyl]-5-fluoro-1-methyl-1H-indol-6-yl}oxy)propyl]-1,3-thiazole-4-carboxylic acid]
6 | 4.61 nM | 0.0077 nM | 10.2 nM | CNCC#Cc1ccc(OCCCc2sc(N3CCc4c3nnc(Nc3nc5ccccc5s3)c4C)nc2C(=O)O)c(F)c1 [Example 37, 2-[3-(1,3-Benzothiazol-2-ylamino)-4-methyl-5,6-dihydropyrrolo[2,3-c]pyridazin-7-yl]-5-[3-[2-fluoro-4-[3-(methylamino)prop-1-ynyl]phenoxy]propyl]thiazole-4-carboxylic acid]
7 | 2.91 nM | 0.0038 nM | 10.4 nM | Cc1c(Nc2nc3ccccc3s2)nnc2c1CCCN2c1nc(C(=O)O)c(CCCOc2ccc(CCCN3CCN(C)CC3)cc2F)s1 [Example 68, 2-[3-(1,3-Benzothiazol-2-ylamino)-4-methyl-6,7-dihydro-5H-pyrido[2,3-c]pyridazin-8-yl]-5-[3-[2-fluoro-4-[3-(4-methylpiperazin-1-yl)propyl]phenoxy]propyl]thiazole-4-carboxylic acid]
8 | 0.817 nM | 0.0048 nM | 6.65 nM | Cc1c(Nc2nc3ccccc3s2)nnc2c1CCCN2c1nc(C(=O)O)c(CCCOc2ccc(C#CCN3CCC4(CC3)CNC(=O)C4)cc2F)s1 [Example 58, 2-[3-(1,3-Benzothiazol-2-ylamino)-4-methyl-6,7-dihydro-5H-pyrido[2,3-c]pyridazin-8-yl]-5-[3-[2-fluoro-4-[3-(3-oxo-2,8-diazaspiro[4.5]decan-8-yl)prop-1-ynyl]phenoxy]propyl]thiazole-4-carboxylic acid]
9 | 0.309 nM | 0.0016 nM | 2.25 nM | Cc1c(Nc2nc3ccccc3s2)nnc2c1CCCN2c1nc(C(=O)O)c(CCCOc2ccc(C#CCN3CCN(C)CC3)cc2F)s1 [Example 48, 2-[3-(1,3-Benzothiazol-2-ylamino)-4-methyl-6,7-dihydro-5H-pyrido[2,3-c]pyridazin-8-yl]-5-[3-[2-fluoro-4-[3-(4-methylpiperazin-1-yl)prop-1-ynyl]phenoxy]propyl]thiazole-4-carboxylic acid]
10 | 2.11 nM | 0.0045 nM | 9.3 nM | Cc1c(Nc2nc3ccccc3s2)nnc2c1CCCN2c1nc(C(=O)O)c(CCCOc2ccc(CCCN3CCCCC3)cc2F)s1 [Example 71, 2-[3-(1,3-Benzothiazol-2-ylamino)-4-methyl-6,7-dihydro-5H-pyrido[2,3-c]pyridazin-8-yl]-5-[3-[2-fluoro-4-[3-(1-piperidyl)propyl]phenoxy]propyl]thiazole-4-carboxylic acid]
11 | 1.71 nM | 0.0031 nM | 11.7 nM | Cc1c(Nc2nc3ccccc3s2)nnc2c1CCCN2c1nc(C(=O)O)c(CCCOc2ccc(C#CC(C)N3CCCC3)cc2F)s1 (stereo not drawn) [Example 43, 2-[3-(1,3-Benzothiazol-2-ylamino)-4-methyl-6,7-dihydro-5H-pyrido[2,3-c]pyridazin-8-yl]-5-[3-[2-fluoro-4-(3-pyrrolidin-1-ylbut-1-ynyl)phenoxy]propyl]thiazole-4-carboxylic acid]
12 | 30.5 nM | 0.0052 nM | 11.8 nM | CNCCc1ccc(OCCCc2sc(N3CCCc4c3nnc(Nc3nc5ccccc5s3)c4C)nc2C(=O)O)c(F)c1 [Example 64, 2-{3-[(1,3-Benzothiazol-2-yl)amino]-4-methyl-5H,6H,7H,8H-pyrido[2,3-c]pyridazin-8-yl}-5-(3-{2-fluoro-4-[2-(methylamino)ethyl]phenoxy}propyl)-1,3-thiazole-4-carboxylic acid]
13 | 37.1 nM | 0.0098 nM | 33.6 nM | CNCCN[C@@H]1Cc2c(nnc(Nc3nc4ccccc4s3)c2C)N(c2nc(C(=O)O)c(CCCOc3ccc(CCCN(C)C)cc3F)s2)C1 [Example 39, 2-[(6R)-3-[(1,3-Benzothiazol-2-yl)amino]-4-methyl-6-{[2-(methylamino)ethyl]amino}-5H,6H,7H,8H-pyrido[2,3-c]pyridazin-8-yl]-5-(3-{4-[3-(dimethylamino)propyl]-2-fluorophenoxy}propyl)-1,3-thiazole-4-carboxylic acid]
14 | 7.4 nM | 0.0032 nM | 14.6 nM | Cc1c(Nc2nc3ccccc3s2)nnc2c1CCCN2c1nc(C(=O)O)c(CCCOc2ccc(CCCN3CCC3)cc2F)s1 [Example 67, 5-[3-[4-[3-(Azetidin-1-yl)propyl]-2-fluoro-phenoxy]propyl]-2-[3-(1,3-benzothiazol-2-ylamino)-4-methyl-6,7-dihydro-5H-pyrido[2,3-c]pyridazin-8-yl]thiazole-4-carboxylic acid]
15 | 47.2 nM | 0.0012 nM | 595 nM | Cc1c(Nc2nc3ccccc3s2)nnc2c1CCCN2c1nc(C(=O)O)c(CCCOc2ccc(C#CCNCC[N+](C)(C)CCCS(=O)(=O)[O-])cc2F)s1 [Example 54, 3-[2-[3-[4-[3-[2-[3-(1,3-Benzothiazol-2-ylamino)-4-methyl-6,7-dihydro-5H-pyrido[2,3-c]pyridazin-8-yl]-4-carboxy-thiazol-5-yl]propoxy]-3-fluoro-phenyl]prop-2-ynylamino]ethyl-dimethyl-ammonio]propane-1-sulfonate]
16 | 0.592 nM | 0.003 nM | 5.54 nM | Cc1c(Nc2nc3ccccc3s2)nnc2c1CCCN2c1nc(C(=O)O)c(CCCOc2ccc(C#CCN3CCC(N4CCCCC4)CC3)cc2F)s1 [Example 57, 2-[3-(1,3-Benzothiazol-2-ylamino)-4-methyl-6,7-dihydro-5H-pyrido[2,3-c]pyridazin-8-yl]-5-[3-[2-fluoro-4-[3-[4-(1-piperidyl)-1-piperidyl]prop-1-ynyl]phenoxy]propyl]thiazole-4-carboxylic acid]
17 | 3.71 nM | 0.071 nM | 87.7 nM | Cc1c(Nc2nc3ccccc3s2)nnc2c1CCCN2c1nc(C(=O)O)c(CCCOc2ccc(C#CCN3CCCC(F)(F)C3)cc2F)s1 [Example 50, 2-{3-[(1,3-Benzothiazol-2-yl)amino]-4-methyl-5H,6H,7H,8H-pyrido[2,3-c]pyridazin-8-yl}-5-(3-{4-[3-(3,3-difluoropiperidin-1-yl)prop-1-yn-1-yl]-2-fluorophenoxy}propyl)-1,3-thiazole-4-carboxylic acid]
